Data set [1] relates to rat hippocampal slices. The data set is described as follows: epileptiform responses in hippocampal slices induced by high-K+/low-Ca2+ fluid (HKLCF). Format: cell-based, Sprague-Dawley rats. Also on record: rate of spontaneous field bursting: dose or concentration left out as unconfirmed. As to conditions: for evoked epileptiform responses (PS1 amplitude, repetitive PSs per evoked burst): CA3 area, fimbrial stimulation, HKLCF perfusion; for rate of spontaneous field bursting: HKLCF. The method, then:
The effect of brivaracetam on epileptiform responses induced by high-K+/low-Ca2+ concentrations or by bicuculline was examined in transverse hippocampal slices prepared from Sprague-Dawley rats according to previously reported standard procedures. The epileptiform responses were induced by passing from a normal perfusion of artificial cerebrospinal fluid (ACSF) (K+ 3 mM; Ca2+ 2.4 mM) to either high-K+/low-Ca2+ fluid (HKLCF) (K+ 7.5 mM; Ca2+ 0.5 mM) or to 5 M bicuculline methiodide (BMI)-containing ACSF.
Extracellular field potentials (FPs) were recorded in the CA3 area of the slices with 2 M NaCl-filled glass microelectrodes. The evoked FPs were recorded at 10-min intervals in response to fimbrial stimulation with constant current rectangular pulses that elicit a single population spike (PS) of 50-75% of the maximal amplitude when the slice is in ACSF. In the HKLCF model, 2 min of spontaneous activity were also recorded, in the middle of each 10-min interval between the recordings of evoked responses.
Either brivaracetam or levetiracetam was added to the bathing fluid of the slices 20 min before shifting from ACSF to either HKLCF or […] BMI-containing ACSF, and was kept in the perfusion fluid throughout the experiment.

Data set [2] relates to fully amygdala-kindled rats. As to the kind of experiment: fully amygdala-kindled rats. The data set is classed as in vivo. The note with it: for dose from which significant suppression in motor-seizure severity was induced: rat, in vivo.
In data set [3] the test system is genetically sound-sensitive male mice. As to the kind of experiment: audiogenic seizures in mice. The data set is classed as in vivo. As to conditions: acoustic stimulus 90 dB, 30 s; brivaracetam i.p. 30 min, levetiracetam i.p. 60 min before. The method, then:
Audiogenic seizures in mice: Genetically sound-sensitive male mice (16-28 g; n=10 per group), responding with wild running, clonic and tonic convulsions to an acoustic stimulation, were used. Audiogenic seizures were induced by an acoustic stimulus (90 dB, 10-20 kHz) applied for 30 s. The mice were pretreated with either saline, brivaracetam (i.p., 30 min) or levetiracetam (i.p., 60 min), and the proportion of mice protected against clonic convulsions was used as the end point to assess anticonvulsant activity.

The subject of data set [4] is mice. The data set is described as follows: chemically induced seizures in mice (pentylenetetrazol). Format: in vivo. As to conditions: i.p. 30 min before seizure induction; pentylenetetrazol 83 mg kg-1 s.c.; higher ED50 than audiogenic. The procedure:
The dose was selected based on dose-effect curves in saline-treated animals as the convulsive dose inducing clonic convulsions of all four extremities in 97% of the animals. Immediately after administration of the chemoconvulsant, the mice were placed individually in small plastic cages (25 13 8 cm) and observed for the presence of clonic convulsions in all four extremities, for 60 min. The occurrence of tonic convulsions (hindlimb extension) and mortality was also recorded during this interval. The proportion of mice protected against clonic convulsions was calculated and used as the end point for anticonvulsant activity.

Data set [5] has as its system mice. As to the kind of experiment: maximal electroshock in mice. Format: in vivo. As to conditions: i.p. 30 min before seizure induction; higher ED50 than audiogenic. Background: The maximal electroshock test induces tonic seizures with an electrical stimulus.
The test system of another data set is GAERS rats. The data set is described as follows: spontaneous SWDs in GAERS rats. Format: in vivo. As to conditions: for dose from which spontaneous SWDs were significantly suppressed: rat, in vivo.
Data set [6] deals with mice. The data set is described as follows: corneal kindling of mice. The data set is classed as in vivo. The note with it: continued corneal stimulations after termination of treatment; group previously treated with the highest dose.
Data set [7] has as its system rat hippocampal slices. As to conditions: background statement; cited from earlier work.
Data set [8] has as its system rat hippocampal slices. As to conditions: background statement; cited from earlier work. This is another data set of the same source.

A value given as a limit tells only on which side of the number the result lay.

As usually defined, the solubility is the concentration that dissolves in the medium under given conditions. `CCC[C@@H]1CC(=O)N([C@@H](CC)C(N)=O)C1` [Brivaracetam, (2S)-2-[(4R)-2-oxo-4-propyl-pyrrolidin-1-yl] butanamide]: in the data set on rat hippocampal slices [1], the “evoked epileptiform responses (PS1 amplitude, repetitive PSs per evoked burst)” value was “reduced” and the “rate of spontaneous field bursting” value is listed as “reduced”. For the same compound, in data set [2] (highest dose tested, 212.3 mg kg-1), the after-discharge duration result is listed as “significantly reduced”. For the same compound, in data set [2], the “dose from which significant suppression in motor-seizure severity was induced” value is no less than 21.2 mg/kg. For the same compound, the “protection against the expression of clonic convulsions” value in [3] was “protected”. Moreover, the “protection against clonic convulsions induced by pentylenetetrazol” value in the data set with mice [4] is “protected”. The “protection against tonic hindlimb extension induced by a maximal electroshock” value in the data set on mice [5] is listed as “protected”. For the same compound, the “inhibition of spontaneous SWDs” value in the data set with GAERS rats (highest dose tested, 67.9 mg kg-1) is “complete inhibition”. In addition, the “dose from which spontaneous SWDs were significantly suppressed” value in the data set on GAERS rats was no less than 2.1 mg/kg. Further, the “incidence of generalized motor seizures” value with mice [6] is on record as “persistent reduction”. Moreover, in “water solubility”, the solubility is greater than 500 mg/mL.

In the case of `CC[C@@H](C(N)=O)N1CCCC1=O` [Levetiracetam, (S)-(−)-alpha-ethyl-2-oxo-1-pyrrolidine acetamide], in the data set with rat hippocampal slices [1], the “evoked epileptiform responses (PS1 amplitude, repetitive PSs per evoked burst)” value is “reduced” and the “rate of spontaneous field bursting” value is recorded as “not”. For the same compound, the “dose from which significant suppression in motor-seizure severity was induced” value in [2] is no less than 170 mg/kg. Besides, in data set [2] (up to 1700 mg kg-1), the after-discharge duration result is “inactive”. Also, the “protection against the expression of clonic convulsions” value in [3] is reported as “protected”. Further, the “dose from which spontaneous SWDs were significantly suppressed” value in the data set on GAERS rats is no less than 5.4 mg/kg. Moreover, in the data set on rat hippocampal slices [7], the “epileptiform responses induced by high-K+/low-Ca2+ concentrations” value is “reduces”. Further, the “epileptiform responses induced by bicuculline” value with rat hippocampal slices [8] is reported as “reduces”.

In turn, `CC[C@@H](C(N)=O)N1C[C@H](C=C(F)F)CC1=O` [Seletracetam, (2S)-2-[(4S)-4-(2,2-difluorovinyl)-2-oxo-pyrrolidin-1-yl]butanamide] came in with a solubility in “water solubility” greater than 500 mg/mL.

These data come from US8460712B2, “Prolonged release formulations comprising an 2-oxo-1-pyrrolidine derivate” (UCB Pharma, S.A., priority 2008, dated 2013).
